Read-outs that look alike come from different tables or passages of the source.
Experiment: First-in-human Part 2 multiple ascending dose q.d. blood and urine PK
Format: in vivo
Conditions: for Amount recovered / Amount recovered (%): Day 12, urine; for drug accumulation ratio (Racc): day 12 vs day 1, q.d.; for CL renal: blood and urine, Day 12, read-out: Renal clearance
Text: First-in-human study in up to approximately 168 healthy volunteers (HVs), of which 64 (in Parts 2 & 4) had asymptomatic atopic diathesis. • Part 1 was a double-blind (subject and investigator blind, sponsor unblinded), placebo-controlled single ascending dose (SAD) escalation study of 10 cohorts (N=80) • Part 2 was a double-blind (subject and investigator blind, sponsor unblinded), placebo-controlled multiple ascending dose (MAD) (13 doses over 12 days) escalation study employing once daily dosing in 6 cohorts in healthy volunteers with asymptomatic atopic diathesis (N=48) • Part 3 was a single dose open-label crossover food effect study in 12 HVs • Part 4 was a double-blind (subject and investigator blind, sponsor unblinded), placebo-controlled multiple dose (25 doses over 12 days) study employing twice daily dosing in 2 cohorts of healthy volunteers with asymptomatic atopic diathesis (N=16)
In Parts 2 and 4, subjects were admitted on Day −2 or −1 for baseline safety assessments and to confirm eligibility. Eligible subjects received the first dose of compound (I) under fasting conditions on Day 1, and continued to take study medication under fasting conditions up to and including Day 12. Subjects were domiciled from Day −2 or −1 until the morning of Day 16, which equals 96 hours after the last dose of compound (I) was received. In Parts 2 and 4, the study medication was given once daily and twice daily respectively (details are found in the schedule of assessments).
Subjects were assigned to one of the following 6 cohorts. In each cohort, 8 subjects were randomized to either compound (I) or matching placebo in a 6:2 ratio. • Cohort 1: multiple oral doses of 10 mg compound (I) or matching placebo • Cohort 2: multiple oral doses of 25 mg compound (I) or matching placebo • Cohort 3: multiple oral doses of 50 mg compound (I) or matching placebo • Cohort 4: multiple oral doses of 100 mg compound (I) or matching placebo • Cohort 5: multiple oral doses of 400 mg compound (I) or matching placebo • Cohort 6: multiple oral doses of up to 600 mg compound (I) or matching placebo
Pharmacokinetic samples were obtained in blood and evaluated in all subjects at all dose levels. The samples from placebo subjects were not analyzed. The samples for PK assessments from subjects were collected at time points defined in the study. Compound (I) concentrations were determined in blood by a validated LC-MS/MS method.

[1] = 10 mg qd, Day 12, blood, Mean ± SD
[2] = 25 mg qd, Day 12, blood, Mean ± SD
[3] = 50 mg qd, Day 12, blood, Mean ± SD
[4] = 50 mg qd, Day 12, blood, Median (Min-Max)
[5] = 100 mg qd, Day 1, blood, Mean ± SD
[6] = 100 mg qd, Day 1, blood, Median (Min-Max)
[7] = 100 mg qd, Day 12, blood, Mean ± SD
[8] = 400 mg qd, Day 1, blood, Mean ± SD
[9] = 400 mg qd, Day 12, blood, Mean ± SD
[10] = 600 mg qd, Day 1, blood, Mean ± SD
[11] = 600 mg qd, Day 12, blood, Mean ± SD

Which results are given for `C=CC(=O)N(C)CCOc1c(N)ncnc1-c1cc(F)cc(NC(=O)c2ccc(C3CC3)cc2F)c1C` [Compound of Formula (I), N-(3-(6-Amino-5-(2-(N-methylacrylamido)ethoxy)pyrimidin-4-yl)-5-fluoro-2-methylphenyl)-4-cyclopropyl-2-fluorobenzamide]?
Cmax (10 mg qd, Day 1, blood, Mean ± SD): 8.40 ± 2.02 ng/mL; CLss/F [1]: 425 ± 64.8 L/h; Cmax [1]: 18.2 ± 5.90 ng/mL; CLss/F (10 mg qd, Day 12, blood, Median (Min-Max)): 423 (341-529) L/h; Amount recovered (10 mg qd, Mean ± SD): 0.0663 ± 0.0309 mg; Amount recovered (%) (10 mg qd, Mean ± SD): 0.663 ± 0.309%; Amount recovered (10 mg qd, Median (Min-Max)): 0.0630 mg; Cmax (25 mg qd, Day 1, blood, Mean ± SD): 40.9 ± 21.6 ng/mL; CLss/F [2]: 307 ± 253 L/h; Cmax [2]: 85.9 ± 31.5 ng/mL; CLss/F (25 mg qd, Day 12, blood, Median (Min-Max)): 248 (129-809) L/h; Amount recovered (25 mg qd, Mean ± SD): 0.114 ± 0.0706 mg; Amount recovered (%) (25 mg qd, Mean ± SD): 0.456 ± 0.283%; Cmax (50 mg qd, Day 1, blood, Mean ± SD): 76.5 ± 22.0 ng/mL; CLss/F [3]: 268 ± 92.8 L/h; Cmax [3]: 102 ± 22.0 ng/mL; CLss/F [4]: 276 (154-395) L/h; Cmax [4]: 100 (73.3-131) ng/mL; Amount recovered (50 mg qd, Mean ± SD): 0.233 ± 0.0880 mg; Amount recovered (%) (50 mg qd, Mean ± SD): 0.467 ± 0.176%; AUC0-24 [5]: 315 ± 91.5 ng·h/mL; AUClast [5]: 311 ± 89.1 ng·h/mL; Cmax [5]: 187 ± 85.0 ng/mL; MRT [5]: 167 ± 76.8 min; AUC0-24 [6]: 338 (168-419) h*ng/mL; AUClast [6]: 333 (168-416) h*ng/mL; Cmax [6]: 189 (75.6-285) ng/mL; AUC0-24 [7]: 485 ± 179 ng·h/mL; AUClast [7]: 488 ± 172 ng·h/mL; CLss/F [7]: 198 ± 88.7 L/h; Cmax [7]: 233 ± 84.1 ng/mL; CLss/F (100 mg qd, Day 12, blood, Median (Min-Max)): 166 (129-298) L/h; Amount recovered (100 mg qd, Mean ± SD): 0.648 ± 0.330 mg; Amount recovered (%) (100 mg qd, Mean ± SD): 0.648 ± 0.330%; AUC0-24 [8]: 977 ± 378 ng·h/mL; AUClast [8]: 973 ± 379 ng·h/mL; Cmax [8]: 518 ± 89.1 ng/mL; MRT [8]: 181 ± 66.6 min; Cmax (400 mg qd, Day 1, blood, Median (Min-Max)): 513 (383-622) ng/mL; AUC0-24 [9]: 1280 ± 577 ng·h/mL; AUClast [9]: 1300 ± 602 ng·h/mL; CLss/F [9]: 366 ± 150 L/h; Cmax [9]: 551 ± 263 ng/mL; CLss/F (400 mg qd, Day 12, blood, Median (Min-Max)): 351 (177-591) L/h; Amount recovered (400 mg qd, Mean ± SD): 1.25 ± 0.647 mg; Amount recovered (%) (400 mg qd, Mean ± SD): 0.313 ± 0.162%; AUC0-24 [10]: 1080 ± 377 ng·h/mL; AUClast [10]: 1080 ± 377 ng·h/mL; Cmax [10]: 550 ± 87.6 ng/mL; MRT [10]: 188 ± 34.8 min; Cmax (600 mg qd, Day 1, blood, Median (Min-Max)): 545 (461-691) ng/mL; AUC0-24 [11]: 1230 ± 356 ng·h/mL; AUClast [11]: 1240 ± 341 ng·h/mL; CLss/F [11]: 521 ± 131 L/h; Cmax [11]: 563 ± 229 ng/mL; CLss/F (600 mg qd, Day 12, blood, Median (Min-Max)): 569 (345-661) L/h; Amount recovered (600 mg qd, Mean ± SD): 1.54 ± 0.915 mg; Amount recovered (%) (600 mg qd, Mean ± SD): 0.257 ± 0.153%; drug accumulation ratio (Racc) (high dose): 1.2; drug accumulation ratio (Racc) (low dose): 5; CL renal (human, oral, 10 mg, 10 mg qd, Mean ± SD): 45.3 ± 18 mL/min; CL renal (human, oral, 10 mg, 10 mg qd, Median (Min-Max)): 41.6 mL/min; CL renal (human, oral, 25 mg, 25 mg qd, Mean ± SD): 16.8 ± 6.81 mL/min; CL renal (human, oral, 25 mg, 25 mg qd, Median (Min-Max)): 18.9 mL/min; CL renal (human, oral, 50 mg, 50 mg qd, Mean ± SD): 20.4 ± 2.4 mL/min; CL renal (human, oral, 50 mg, 50 mg qd, Median (Min-Max)): 20.5 mL/min; CL renal (human, oral, 100 mg, 100 mg qd, Mean ± SD): 21.6 ± 5.41 mL/min; CL renal (human, oral, 100 mg, 100 mg qd, Median (Min-Max)): 21.1 mL/min; CL renal (human, oral, 400 mg, 400 mg qd, Mean ± SD): 16.9 ± 7.13 mL/min; CL renal (human, oral, 400 mg, 400 mg qd, Median (Min-Max)): 14.5 mL/min; CL renal (human, oral, 600 mg, 600 mg qd, Mean ± SD): 20 ± 8.25 mL/min; CL renal (human, oral, 600 mg, 600 mg qd, Median (Min-Max)): 18.1 mL/min; AUC(0-t) (human, blood, oral, 10 mg, 10 mg qd, Day 1, blood, Mean ± SD, read-out: AUC0-24): 4.94 ± 1.35 ng·h/mL; AUC(0-t) (human, blood, oral, 10 mg, 10 mg qd, Day 1, blood, Mean ± SD, read-out: AUClast): 4.17 ± 1.38 ng·h/mL; MRT (human, blood, oral, 10 mg, 10 mg qd, Day 1, blood, Mean ± SD, read-out: MRT): 45.7 ± 9.06 min; Tmax (human, blood, oral, 10 mg, 10 mg qd, Day 1, blood, Median (Min-Max)): 31 min; AUC(0-t) (human, blood, oral, 10 mg, 10 mg qd, Day 1, blood, Median (Min-Max), read-out: AUC0-24): 4.94 ng·h/mL

Reference: US12383556B2, “Methods of treating Sjögren's syndrome using a Bruton's tyrosine kinase inhibitor” (NOVARTIS AG, priority 2019, dated 2025)
